In patent US20240327506A1, “METHODS AND COMPOSITION FOR THE SELECTIVE ENHANCEMENT OF ADOPTIVE CELL THERAPY” (MaineHealth, priority 2023, published 2024):

What was measured:
Hut78 T-cells = test: Transwell migration of Hut78 T-cells through collagen type-IV; format: cell-based, human
Procedure: FIGS. 4A-4H. […] Briefly, membranes from transwell migration chambers were coated with either native collagen type-IV or denatured collagen type-IV. T-cell variants were incubated with non-specific control peptide CP, or the RGDKGE (SEQ ID NO: 1)-containing collagen peptide (P2) and seed on the coated transwell membranes. T-cells were allowed to migrate in the presence or absence of SDF-1 added to the lower chamber for approximately 1.5 hours. Cell migration was quantified by counting the number of crystal violet stained cells that had migrated through to the underside of the coated membrane. FIG. 4A. Jurkat T-cell migration through denatured collagen type-IV in the presence of non-specific control peptide CP or RGDKGE (SEQ ID NO: 1)-containing collagen peptide P2 with SDF-1. FIG. 4B. Jurkat T-cell migration through native collagen type-IV in the presence of non-specific control peptide CP or RGDKGE (SEQ ID NO: 1)-containing collagen peptide P2 with SDF-1. FIG. 4C. Cem/C1 T-cell migration through denatured collagen type-IV in the presence of non-specific control peptide CP or RGDKGE (SEQ ID NO: 1)-containing collagen peptide P2 with SDF-1. FIG. 4D. Cem/C1 T-cell migration through native collagen type-IV in the presence of non-specific control peptide CP or RGDKGE (SEQ ID NO: 1)-containing collagen peptide P2. FIG. 4E. Hut78 T-cell migration through denatured collagen type-IV in the presence of non-specific control peptide CP or RGDKGE (SEQ ID NO: 1)-containing collagen peptide P2. FIG. 4F. Hut78 T-cell migration through native collagen type-IV in the presence of non-specific control peptide CP or RGDKGE (SEQ ID NO: 1)-containing collagen peptide P2. FIG. 4G Primary CD8+ T-cell migration through denatured collagen type-IV in the presence of non-specific control peptide CP or RGDKGE (SEQ ID NO: 1)-containing collagen peptide P2 with SDF-1. FIG. 4H. CD8+ T-cell migration through native collagen type-IV in the presence of non-specific control peptide CP or RGDKGE (SEQ ID NO: 1)-containing collagen peptide P2 with SDF-1. Data bars indicate the mean cell migration±S.E. *P<0.05.
Given our new observations, and the fact that many tumor types as well as immunosuppressive macrophages can secrete the small soluble RGDKGE (SEQ ID NO: 1) collagen peptide, we next sought to determine whether this soluble collagen peptide could impact T-cell migration through denatured collagen type-IV, a critical ECM component shown to be selectively enriched in tumor vessels. Briefly, membranes from transwell migration chambers were coated with either native collagen type-IV or denatured collagen type-IV. […] Cell migration was quantified following staining cells with crystal violet (6,8). […]

αvβ3 = αvβ3 (Homo sapiens, UniProt P05106+P06756); conditions: cited from earlier work
ID8-VEGF ovarian tumors = test: T-cell levels in malignant ascites fluid of mice with ID8-VEGF ovarian tumors, flow cytometry; format: in vivo, C57BL/6 mice; conditions: compared to control antibody
Procedure: Data bars represent the mean percentage of CD8+ T-cells (+SE from 4 mice per condition) in the ascites fluid from each experimental group.
Mice (C57BL/6) were injected intraperitoneally with ID8-VEGF ovarian tumor cells. ID8-VEGF tumor cells were allowed to grow within the peritoneal cavity of mice for 4-weeks to allow formation of malignant ascites fluid and solid tumors. Beginning at 4 weeks, mice were injected subcutaneously with 100 μg per mouse 2× per week with non-specific control antibody (Ab Cont) or anti-HU177 antibody (Anti-HU177). At 12 weeks, mice were sacrificed and malignant ascites fluid was collected. The relative levels of CD4+ Treg-cells within the malignant ascites fluid was quantified by flow cytometry. Data bars represent the mean percentage of CD4+ Treg cells+SE from 4 mice per condition in the ascites fluid from each experimental group.
Given the surprising results that the Mab HU177 enhanced T-cell migration on denatured collagen type-IV, we next evaluated if administration of HU-177 antibody could increase the levels of CD8+ T-cells found in malignant ascites fluid. […] The relative levels of CD8+ T-cells within the malignant ascites fluid was quantified by flow cytometry, for 4 mice per experimental condition. […]

tumor = conditions: combination with anti-PDL-1 antibody; cited from earlier work
activated fibroblasts = conditions: cited from earlier work

αvβ3, sequence (P06756 31-889 limits assumed): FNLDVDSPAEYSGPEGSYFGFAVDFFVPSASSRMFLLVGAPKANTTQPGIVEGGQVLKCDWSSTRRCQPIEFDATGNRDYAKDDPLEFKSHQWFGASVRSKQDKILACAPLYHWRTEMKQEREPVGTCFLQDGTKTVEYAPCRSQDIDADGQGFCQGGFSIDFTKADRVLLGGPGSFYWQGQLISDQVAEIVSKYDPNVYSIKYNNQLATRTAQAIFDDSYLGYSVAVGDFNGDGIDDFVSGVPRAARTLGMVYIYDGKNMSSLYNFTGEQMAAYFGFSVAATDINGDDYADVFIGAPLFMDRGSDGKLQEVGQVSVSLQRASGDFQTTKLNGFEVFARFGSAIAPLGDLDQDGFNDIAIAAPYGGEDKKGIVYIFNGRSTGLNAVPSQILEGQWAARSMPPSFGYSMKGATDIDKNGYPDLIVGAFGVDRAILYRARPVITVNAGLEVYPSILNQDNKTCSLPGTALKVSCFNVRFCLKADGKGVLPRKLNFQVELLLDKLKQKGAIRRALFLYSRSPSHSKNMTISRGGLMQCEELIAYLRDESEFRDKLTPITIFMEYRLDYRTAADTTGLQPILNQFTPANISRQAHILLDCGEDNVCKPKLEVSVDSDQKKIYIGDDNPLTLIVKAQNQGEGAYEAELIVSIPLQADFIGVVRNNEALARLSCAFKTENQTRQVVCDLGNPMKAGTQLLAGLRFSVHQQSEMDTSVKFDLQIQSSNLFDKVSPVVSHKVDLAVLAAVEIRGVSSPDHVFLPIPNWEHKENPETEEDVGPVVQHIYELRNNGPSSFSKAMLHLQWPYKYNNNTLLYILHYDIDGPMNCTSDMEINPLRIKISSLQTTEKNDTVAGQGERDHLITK
αvβ3, sequence (P06756 891-1048 partner limits assumed): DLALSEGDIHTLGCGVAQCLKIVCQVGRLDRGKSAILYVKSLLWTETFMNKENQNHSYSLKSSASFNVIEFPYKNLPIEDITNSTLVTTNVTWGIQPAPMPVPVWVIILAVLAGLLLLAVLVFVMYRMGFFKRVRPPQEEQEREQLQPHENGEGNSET
αvβ3, sequence (P05106 27-788): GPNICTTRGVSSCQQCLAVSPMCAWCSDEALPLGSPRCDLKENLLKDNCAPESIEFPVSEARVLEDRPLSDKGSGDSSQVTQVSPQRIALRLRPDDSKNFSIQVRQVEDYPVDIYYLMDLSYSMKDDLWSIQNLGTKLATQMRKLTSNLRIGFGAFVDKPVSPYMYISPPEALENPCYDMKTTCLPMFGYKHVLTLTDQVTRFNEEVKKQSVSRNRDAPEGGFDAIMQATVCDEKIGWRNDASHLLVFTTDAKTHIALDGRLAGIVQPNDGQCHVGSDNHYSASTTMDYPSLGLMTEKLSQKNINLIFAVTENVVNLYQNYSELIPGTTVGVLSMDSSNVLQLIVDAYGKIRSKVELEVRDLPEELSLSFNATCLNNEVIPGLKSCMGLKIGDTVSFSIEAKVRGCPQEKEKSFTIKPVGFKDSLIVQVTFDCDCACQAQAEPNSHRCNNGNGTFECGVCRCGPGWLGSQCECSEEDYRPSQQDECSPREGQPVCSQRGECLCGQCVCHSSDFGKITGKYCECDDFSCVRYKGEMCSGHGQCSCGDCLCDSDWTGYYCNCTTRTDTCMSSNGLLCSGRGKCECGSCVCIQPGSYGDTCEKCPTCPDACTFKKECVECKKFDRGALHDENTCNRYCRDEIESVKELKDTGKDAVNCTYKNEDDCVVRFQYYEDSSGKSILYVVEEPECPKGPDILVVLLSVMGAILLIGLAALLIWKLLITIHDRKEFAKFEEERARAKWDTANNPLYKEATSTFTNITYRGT

## CQGPGGAAGGC [CP, reference compound]
Hut78 T-cells; native collagen type-IV, peptide, absence of SDF-1
  Hut78 T-cell migration: nor the non-specific control peptide had any significant effect

## KGDRGDAPG (CKGDRGDAPGC; Synthetic: Synthetic collagen RGD containing peptide P-1) [synthetic collagen RGD peptide, Colla1 742-750]
αvβ3
  binding to αvβ3: bound

## Mab HU177: antibody specifically directed to denatured forms of collagen, cryptic CPGFPGFC (SEQ ID NO: 16) epitope
ID8-VEGF ovarian tumors; 100 μg per mouse subcutaneously twice a week from week 4, ascites at 12 weeks
  mean % Treg cells in the ascites fluid: significant decrease
ID8-VEGF ovarian tumors; 100 μg/mouse subcutaneously twice a week from week 4, ascites at 12 weeks
  mean percentage of CD8+ T-cells in the ascites fluid: significant increase
Hut78 T-cells; denatured collagen type-IV, fab fragments, compared to control antibody
  Hut78 T-cell migration: significantly enhanced
tumor
  anti-tumor efficacy of an immune checkpoint inhibitor (anti-PDL-1) in vivo: enhance the therapeutic activity
Activated fibroblasts
  activated fibroblast migration and accumulation within tumors in vivo: inhibits
